Laboratory results published in patent US12006276B2, “Dibromobenzyl derivative, stereoisomer or salt thereof, and preparation method and application of dibromobenzyl derivative” (CHENGDU SHIBEIKANG BIOMEDICAL TECHNOLOGY CO., LTD., priority 2019, dated 2024).
Structures can show the parent of a compound that is named as a salt.

Tests used:
SD rats = test: Capillary expectoration test in rats; assay type: in vivo, rat; details: for 90-min length of phlegm expelled: SD rats, 15 mg/kg via tail vein, capillary tube in trachea, x ± s, n=10; for Expectorant effect compared with the ambroxol hydrochloride group (in words): rats, 15 mg/kg, P<0.05 vs ambroxol hydrochloride
Protocol: Capillary Expectoration Test in Rats
The female and male SD rats with body weights ranging from 180 g to 220 g are randomLy allocated into 9 groups (n=10 rats). Before measuring the length of phlegm expelled, the rats are prohibited to eat but allowed to drink for 12 hrs, and then administrated via tail veins with corresponding products (dissolved in normal saline to adjust pH) or normal saline. After 30 mins, urethane saline solution (1 g/kg) is injected intraperitoneally for anesthesia, and the rats are fixed in a supine position for neck incision and trachea separation. […] The angle between the capillary tube and the trachea is adjusted to collect the phlegm, and the expectoration effect is evaluated based on a total length (mm) of the phlegm in the capillary tube.

mice = test: Phenol red expectoration test in mice; assay type: in vivo, mouse; details: for Excretory amount of phenol red (OD value): 30 mg/kg as free alkali, twice via tail vein, trachea phenol red at 546 nm, x ± s, n=12; for Excretory amounts of phenol red compared with the ambroxol hydrochloride group (in words) / Excretory amounts of phenol red compared with the control group (in words): 30 mg/kg; for Excretory amounts of phenol red compared with the ambroxol hydrochloride group (in words): P<0.05 vs ambroxol hydrochloride; for Excretory amounts of phenol red compared with the control group (in words): p<0.05 vs control
Protocol: Phenol Red Expectoration Test in Mice
Methods: Seventy-two female and male mice are randomLy allocated into a control group (normal saline), an Example 1 group (30 mg/kg, as free alkali), an Example 3 group (30 mg/kg, as free alkali), an Example 5 group (30 mg/kg, as free alkali), an Example 12 group (30 mg/kg, as free alkali) and an ambroxol hydrochloride group (30 mg/kg, as free alkali) (n=12 mice); These mice are administrated twice in successive via tail veins with corresponding products (dissolved in normal saline to adjust pH) or normal saline, and then receive 5% phenol red saline solution (0.5 g/kg) by hypodermic administration 15 mins after the last dose. […] The effects on excretory amounts of phenol red from trachea of mice among groups are analyzed and compared, and results are shown in Table 2: […]

[1] = Pharmacokinetics test in rats; assay type: in vivo, rat; details: intravenous; for MRT / clearance / half-life / AUC(0-inf): both sexes, rat, plasma, 10 mg/kg as free alkali; for MRT / clearance / half-life: n=6; for AUC(0-inf): n=6, read-out: AUC AUC0-inf; for Half-life, clearance, MRT and AUC compared with the ambroxol hydrochloride group (in words): P<0.05
Protocol: Pharmacokinetics Test in Rats
Methods: Twenty-four female and male rats are randomLy allocated into an Example 1 compound group (10 mg/kg, as free alkali), an Example 3 compound group (10 mg/kg, as free alkali), an Example 12 compound group and an ambroxol hydrochloride group (10 mg/kg, as free alkali) (n=6); These rats are given corresponding products (dissolved in normal saline to adjust pH) intravenously. About 0.2 mL of blood samples is respectively collected from jugular veins before and 15.0 min, 30.0 min, 1.0 h, 2.0 h, 3.0 h, 4.0 h, 6.0 h, 8.0 h, 12.0 h and 24.0 h after the administration, and then centrifuged at a high speed (7800×g) for 15 min in a tube containing EDTA-K2. The separated plasma is stored at −15° C.˜−35° C.

Row | Compound | MRT [1] [h] | clearance [1] [mL/min/kg] | half-life [1] [h] | AUC(0-inf) [1] [ng·h/mL] | 90-min length of phlegm expelled (SD rats) [mm] | Expectorant effect compared with the ambroxol hydrochloride group (in words) (SD rats) | Excretory amount of phenol red (OD value) (mice) | Excretory amounts of phenol red compared with the ambroxol hydrochloride group (in words) (mice) | Excretory amounts of phenol red compared with the control group (in words) (mice) | Half-life, clearance, MRT and AUC compared with the ambroxol hydrochloride group (in words) [1]
1 | Nc1c(Br)cc(Br)cc1CNC12CC3CC(CC(C3)C1F)C2 (stereo not drawn) [Example 8, (2-amino-3,5-dibromobenzyl)-2-fluoro-adamantane-1-amine] | – | – | – | – | 35.8 ± 5.98 | – | – | – | – | –
2 | Nc1c(Br)cc(Br)cc1CNC12CC3CC(C1)CC(C(F)(F)F)(C3)C2 [Example 6, (2-amino-3,5-dibromobenzyl)-3-trifluoromethyl-adamantane-1-amine] | – | – | – | – | 35.2 ± 4.79 | – | – | – | – | –
3 | Nc1c(Br)cc(Br)cc1CN[C@@H]1CCC[C@@H]1C(F)(F)F [Example 7, (1R,2S)-2-trifluoromethyl-((2-amino-3,5-dibromobenzyl)amino)-cyclopentane] | – | – | – | – | 31.8 ± 5.73 | – | – | – | – | –
4 | CC12CC3CC(C1)CC(NCc1cc(Br)cc(Br)c1N)(C3)C2 [Example 5, (2-amino-3,5-dibromobenzyl)-3-methyl-adamantane-1-amine] | – | – | – | – | 36.9 ± 5.45 | – | 0.201 ± 0.062 | – | – | –

The next lines start with results.

Row | MRT [1] [h] | clearance [1] [mL/min/kg] | half-life [1] [h] | AUC(0-inf) [1] [ng·h/mL] | Compound | 90-min length of phlegm expelled (SD rats) [mm] | Expectorant effect compared with the ambroxol hydrochloride group (in words) (SD rats) | Excretory amount of phenol red (OD value) (mice) | Excretory amounts of phenol red compared with the ambroxol hydrochloride group (in words) (mice) | Excretory amounts of phenol red compared with the control group (in words) (mice) | Half-life, clearance, MRT and AUC compared with the ambroxol hydrochloride group (in words) [1]
5 | 2.31 ± 0.36 | 47.7 | 3.12 ± 0.34 | 3650 ± 180 | Nc1c(Br)cc(Br)cc1CN[C@@H]1CCC[C@H]1O [Example 3, (1R,2R)-2-((2-amino-3,5-dibromobenzyl)amino)-cyclopentanol] | 37.8 ± 6.45 | remarkably superior to the ambroxol hydrochloride | 0.218 ± 0.052 | remarkably superior to the ambroxol hydrochloride | significantly increase | significantly superior to the ambroxol hydrochloride group
6 | 1.18 ± 0.2 | 101 | 1.98 ± 0.34 | 1650 ± 71.9 | Nc1c(Br)cc(Br)cc1CN[C@H]1CC[C@H](O)CC1 [Ambroxol hydrochloride, reference compound] | 29.9 ± 4.96 | – | 0.131 ± 0.015 | – | significantly increase | –
7 | 2.58 ± 0.41 | 34.9 | 3.58 ± 0.45 | 4470 ± 250 | Nc1c(Br)cc(Br)cc1CNC12CC3CC(CC(O)(C3)C1)C2 [Example 1, 3-((2-amino-3,5-dibromobenzyl)amino)adamantane-1-ol] | 39.9 ± 5.35 | remarkably superior to the ambroxol hydrochloride | 0.220 ± 0.063 | remarkably superior to the ambroxol hydrochloride | significantly increase | significantly superior to the ambroxol hydrochloride group
8 | 2.65 ± 0.42 | 35.8 | 3.43 ± 0.35 | 4490 ± 240 | Nc1c(Br)cc(Br)cc1CNC1C2CC3CC1CC(O)(C3)C2 (stereo not drawn) [Example 12, 4-((2-amino-3,5-dibromobenzyl)amino)adamantane-1-ol] | 39.8 ± 5.31 | remarkably superior to the ambroxol hydrochloride | 0.221 ± 0.059 | remarkably superior to the ambroxol hydrochloride | significantly increase | significantly superior to the ambroxol hydrochloride group
